Test results reported in PMC6882900, “Pharmacokinetics of Micafungin in Critically Ill Patients” (Scientific Reports, 2019).
≈ marks a conversion by molar mass, not a printed value. Numbered stars: 1 amine (or outer) side, 2 acyl side, 3 side chain; on linkers, the order of the positions; unused ones are H or OH. Bridge positions count the residues as written; N and C are the ends. Square brackets hold non-standard residues; d marks the D form. Peptide text beside a SMILES is read from it. * marks the point of attachment. hTyr(3S-OH,4S-OH,3'-OSO3H) = N[C@H](C(=O)O)[C@H](O)[C@@H](O)c1ccc(O)c(OS(=O)(=O)O)c1; Orn(4R-OH,5R-OH) = O=C([C@H](C[C@@H](O)[C@@H](O)N[*:3])N[*:1])[*:2]; Pro(3S-OH,4S-Me) = C[C@H]1CN[C@H](C(=O)O)[C@H]1O; X1 = CCCCCOc1ccc(-c2cc(-c3ccc(C(=O)*)cc3)no2)cc1; Gln(3R-OH) = NC(=O)C[C@@H](O)[C@H](N)C(=O)O; Hyp = O=C(O)[C@@H]1C[C@@H](O)CN1

Columns and labels:
[1] = Population pharmacokinetic modelling of micafungin in critically ill patients (NONMEM, plasma samples); format: in vivo, human
From the text: This is a non-interventional study conducted in critically ill adult patients treated in the intensive care units of the Department of Anaesthesiology, Intensive Care Medicine and Pain Therapy of the University Hospital Muenster in Germany. The collection of data and blood samples was approved by the ethics committee of the University of Muenster (Study Code 06-AnIt-11). […] Written informed consent was obtained from all patients or their representatives.
The study included 36 adult patients. Patient demographics and other clinical parameters were collected from the electronic patient charts of the intensive care unit. All patients received 100 mg micafungin intravenously once daily either as empiric or targeted therapy of suspected or proven infection. The decision to begin or end therapy was made by the physicians in charge of the intensive care units irrespective of the pharmacologic study.
Blood samples were collected from indwelling arterial catheters for analysis of micafungin concentrations. On day 1, plasma micafungin concentration was determined at 1, 4, 8, 12, 16 and 20 hours post application and as a trough level immediately before the next dose of micafungin after 24 hours. From day two of therapy, peak levels one hour after infusion and trough levels were collected.
Blood samples were exclusively taken from arterial lines into ethylenediaminetetraacetic acid (EDTA)-containing sample vials tubes (S-Monovette® 2.7 ml K3E, Sarstedt, Nümbrecht, Germany). Samples were immediately transported to the in-house laboratory and plasma was separated by centrifugation at 1600 x g (10 min) and kept and frozen at −80 °C until analysis.
Micafungin in human plasma was analyzed with reversed-phase high-performance liquid chromatography. 200 µl serum, 20 µl internal standard solution (anidulafungin 1 mg/ml in water), 20 µl 30% ZnSO4 x7H2O (w/v) in water and 700 µl methanol were vortex-mixed (5 sec) followed by centrifugation at 800 g for 3 min. 50 µl of the supernatant was injected on a 125 liquid chromatograph (Beckman Coulter GmbH, Krefeld, Germany) interfaced with a model 168 diode array detector. Chromatographic conditions: mobile phase: acetonitrile/50 mM ammonium acetate buffer pH 4.6, 50:50 (v/v); flow rate 1 ml/min at 45 °C; absorbance detection 271 nm; column: XTerra RP18, 3.5 µm, 150 × 4.6 mm (Waters GmbH, Eschborn, Germany).
Model building was performed using NONMEM (Version 7.3; ICON Development Solutions, Ellicott City, MD) with the ADVAN 6 subroutine and the FOCE + I estimation method. Visual predictive checks (pcVPC) and stepwise covariate model building (SCM) were performed with the PsN module (Version 4.6.0)[25]. Graphical output was created in R (version 3.4.0; R foundation for statistical computing, Vienna, Austria) with additional use of the Xpose package (version 4.5.3)[26].
The basic structural model was tested with the following compositions: One to three compartments with linear clearance, nonlinear (Michaelis Menten) clearance and a combination of both were tested.
As categorical covariate, sex was tested. Covariate influence was tested on central and peripheral volumes of distribution, and clearance. Covariate testing was performed using stepwise covariate modelling (SCM) in PsN with a 5% forward inclusion and 1% backward elimination criterion.

C. glabrata [2] = assay: Pharmacodynamic target evaluation (AUC/MIC) in the study population; format: in vivo, Candida glabrata; conditions: fixed dose 100 mg once daily, post-hoc AUC 0-24 h per patient and day
From the text: (§1) The European Committee on Antimicrobial Susceptibility Testing (EUCAST) established the guideline for micafungin and Candida ssp. with species related clinical breakpoints for non-resistant strains. These breakpoints were used as surrogate for the minimal inhibitory concentration (MIC) for C. albicans, C. glabrata and C. parapsilosis. Proposed MICs are […], respectively.
(§2) Using the previously established population pharmacokinetic model, the AUC for each patient on each day of therapy was determined.

C. parapsilosis [3] = assay: as above; format: in vivo, Candida parapsilosis; conditions: fixed dose 100 mg once daily, post-hoc AUC 0-24 h per patient and day
From the text: as §1, §2

C. albicans [4] = assay: as above; format: in vivo, Candida albicans; conditions: fixed dose 100 mg once daily, post-hoc AUC 0-24 h per patient and day
From the text: as §1, §2

C. parapsilosis [5] = conditions: non-resistant strains; cited from earlier work
From the text: as §1

C. albicans [6] = conditions: non-resistant strains; cited from earlier work
From the text: as §1

[7] = cited from earlier work
Description: (§3) Micafungin has a small volume of distribution (~119 ml/kg) and the drug is highly protein bound (>99%). The primary binding protein is albumin. […] The pharmacokinetics and pharmacodynamics of micaf ...

albumin = conditions: primary binding protein is albumin; cited from earlier work
Description: as §3

C. glabrata [8] = tested on: C. glabrata; design: method as in EUCAST; conditions: ref EUCAST; cited from earlier work
C. albicans [9] = tested on: C. albicans; design: method as in EUCAST; conditions: ref EUCAST; cited from earlier work
C. parapsilosis [10] = tested on: C. parapsilosis; design: method as in EUCAST; conditions: ref EUCAST; cited from earlier work
[11] = final population PK model estimate, 36 critically ill adult patients, 100 mg i.v. once daily

## CCCCCOc1ccc(-c2cc(-c3ccc(C(=O)N[C@H]4C[C@@H](O)[C@@H](O)NC(=O)[C@@H]5[C@@H](O)[C@@H](C)CN5C(=O)[C@H]([C@H](O)CC(N)=O)NC(=O)[C@H]([C@H](O)[C@@H](O)c5ccc(O)c(OS(=O)(=O)O)c5)NC(=O)[C@@H]5C[C@@H](O)CN5C(=O)[C@H]([C@@H](C)O)NC4=O)cc3)no2)cc1 [micafungin] (X1-[Orn(4R-OH,5R-OH)]T[Hyp][hTyr(3S-OH,4S-OH,3'-OSO3H)][Gln(3R-OH)][Pro(3S-OH,4S-Me)]; lactam 1-C)
[1]; CVVHDF, SLEDD, clearance and volumes of distribution
  Influence of renal replacement therapy on pharmacokinetics: did not alter the pharmacokinetics
[1]; categorical covariate effect, SOFA >10 vs less critically ill patients
  Lower central volume of distribution in patients with SOFA >10: 30.8%
[1]; categorical covariate effect, bilirubin >4 mg/dl
  Lower clearance in patients with bilirubin >4 mg/dl: 21.1%
[1]; [11]
  Central volume of distribution: 16.2 L
  Inter-compartmental clearance: 14.4 L/h
  Peripheral volume of distribution: 13.8 L
[1]; human, iv, final population PK model estimate (two compartments, linear elimination), 36 critically ill adult patients, 100 mg i.v. once daily, plasma, HPLC-UV
  clearance: 26 mL/min
[1]; up to 10 days of treatment, 100 mg i.v. once daily
  Accumulation of micafungin in plasma: No accumulation
C. glabrata [2]
  Adequacy of AUC/MIC ratio against EUCAST breakpoint: adequate therapy intensities
C. parapsilosis [3]
  Adequacy of AUC/MIC ratio against EUCAST breakpoint: does not seem suitable
C. albicans [4]
  Adequacy of AUC/MIC ratio against EUCAST breakpoint: adequate therapy intensities
C. parapsilosis [5]
  MIC (EUCAST breakpoint as surrogate): 2000 µg/mL (≈ 1570 µM)
C. albicans [6]
  MIC (EUCAST breakpoint as surrogate): 16 µg/mL (≈ 12.6 µM)
[7]
  Volume of distribution: ~ 119 ml/kg
[7]; daily doses between 12.5 mg and 200 mg as well as 3 mg/kg and 8 mg/kg
  Linearity of pharmacokinetics: Linear pharmacokinetics
albumin
  Protein bound: > 99%
C. glabrata [8]
  AUC/MIC target to reach stasis: 1283
C. albicans [9]
  AUC/MIC target to reach stasis: 2420
C. parapsilosis [10]
  AUC/MIC target to reach stasis: 285
